Among the data in patent US20260083708A1, “IL-17 MODULATORS AND USES THEREOF” (NNOCARE PHARMA INC., priority 2024, published 2026) are IC50 values, retold here.

Test [1] concerns IL-17AF-induced IL-17 signaling pathway. Kind of test: Inhibition of IL-17AF-induced IL-17 signaling pathway. In kind it is cell-based. As to conditions: Homo sapiens; IL-17AF used instead of IL-17AA; read-out: IC50 for Inhibiting IL-AF Signaling. A digest of the protocol: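 HEK293-derived HEK-Blue IL-17 cells (IL-17RA/RC, ACT1, NF-κB/AP-1-driven SEAP) preincubated 1 hour at 37° C with serially diluted compound from 10 μM, then stimulated with IL-17AF for 20 hours. SEAP read colorimetrically at 620 nm; IC50 from 4-parameter fit of % inhibition.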

Test [2] deals with IL-17AA-induced IL-17 signaling pathway. The test is described as follows: Inhibition of IL-17AA-induced IL-17 signaling pathway in HEK-Blue IL-17 reporter cells (SEAP). Type of test: cell-based. As to conditions: Homo sapiens; HEK-Blue IL-17 cells, IL-17AA 2.5 ng/mL, 20 hours; read-out: IC50 for Inhibiting IL-AA Signaling. The essentials: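 HEK-Blue IL-17 cells (HEK293 expressing human IL-17RA/RC, ACT1 and NF-κB/AP-1-driven SEAP), 10,000/well, pre-incubated with compound (serial dilution from 10 μM) for 1 h at 37 °C, then stimulated with IL-17AA at 2.5 ng/mL final for 20 h. SEAP in supernatant read with Quanti-Blue at 620 nm; IC50 by 4-parameter fit.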

Another test deals with T1, IL-17AA and IL-17RA (Homo sapiens, UniProt Q16552).
T1 construct: purchased Sino Biological 12047-H07B (IL-17AA); 10895-H02H (IL-17RA)
T1 sequence (Q16552 24-155): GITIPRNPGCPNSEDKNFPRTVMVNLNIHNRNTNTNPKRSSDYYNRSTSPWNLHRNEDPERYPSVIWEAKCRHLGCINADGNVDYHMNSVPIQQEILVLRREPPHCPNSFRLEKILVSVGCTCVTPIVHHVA
The test is described as follows: Competitive inhibition of human IL-17AA and IL-17RA binding (HTRF). To be noted: recombinant IL-17AA (His-tag) and IL-17RA (hFc-tag); read-out: IC50 for Inhibiting IL-AA/IL-RA Binding. The essentials:
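His-IL-17AA (1 nM) premixed 1 h with anti-His-Tb (0.4 nM), and Fc-IL-17RA (1 nM) with anti-IgG-d2 (1 μg/mL); these are pre-mix levels. Compounds, diluted from 10 μM, preincubated 2 h RT with IL-17AA mix; IL-17RA mix then added, 20 min. 665/615 ratio vs no-compound and no-IL-17AA controls; IC50 by 4-parameter fit.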

Regarding `CCC(=O)N[C@@H](c1ncnn1CC1CC1)[C@@H](C)c1ccc(NC(=O)[C@@H](NC(=O)c2ccnn2CC)C2CCC(=C(F)F)CC2)c(F)c1` (stereo partly drawn) [Compound 77, N-((S)-2-((4-((1R,2S)-1-(1-(cyclopropylmethyl)-1H-1,2,4-triazol-5-yl)-1-propionamidopropan-2-yl)-2-fluorophenyl)amino)-1-(4-(difluoromethylene)cyclohexyl)-2-oxoethyl)-1-ethyl-1H-pyrazole-5-carboxamide], the IC50 in test [1] was 32 nM; in test [2], 11 nM; at IL-17AA and IL-17RA, 5.6 nM.
For `CCC(=O)N[C@@H](c1ncccc1CC1CC1)[C@@H](C)c1ccc(NC(=O)[C@@H](NC(=O)c2ccnn2CC)C(C2CC2)C2CC2)c(F)c1` [Compound 82, N-((S)-1,1-dicyclopropyl-3-((4-((1R,2S)-1-(3-(cyclopropylmethyl)pyridin-2-yl)-1-propionamidopropan-2-yl)-2-fluorophenyl)amino)-3-oxopropan-2-yl)-1-ethyl-1H-pyrazole-5-carboxamide] the same measures were 8.4 nM, 10 nM and 5.6 nM.
For `COCC(=O)N[C@@H](c1nncn1CC1CC1)[C@@H](C)c1ccc(NC(=O)[C@@H](NC(=O)COCC2(C(F)F)COC2)C(C2CC2)C2CC2)c(F)c1` [Compound 10, (S)-3,3-dicyclopropyl-N-(4-((1R,2S)-1-(4-(cyclopropylmethyl)-4H-1,2,4-triazol-3-yl)-1-(2-methoxyacetamido)propan-2-yl)-2-fluorophenyl)-2-(2-((3-(difluoromethyl)oxetan-3-yl)methoxy)acetamido)propanamide] the same measures were 1040 nM, 277 nM and 109 nM.
For `CC(=O)N[C@@H](c1ncnn1CC1CC1)[C@@H](C)c1ccc(NC(=O)[C@@H](NC(=O)c2nonc2C)C(C2CC2)C2CC2)c(F)c1` [Compound 67, N-((S)-1-((4-((1R,2S)-1-acetamido-1-(1-(cyclopropylmethyl)-1H-1,2,4-triazol-5-yl)propan-2-yl)-2-fluorophenyl)amino)-3,3-dicyclopropyl-1-oxopropan-2-yl)-4-methyl-1,2,5-oxadiazole-3-carboxamide] the same measures were 13 nM, 8 nM and 1.1 nM.
For `CCn1nccc1C(=O)N[C@H](C(=O)Nc1ccc([C@H](C)[C@@H](NC(=O)COC)c2ncnn2CC2CC2)cc1OC)C(C1CC1)C1CC1` [Compound 45, N-((S)-1,1-dicyclopropyl-3-((4-((1R,2S)-1-(1-(cyclopropylmethyl)-1H-1,2,4-triazol-5-yl)-1-(2-methoxyacetamido)propan-2-yl)-2-methoxyphenyl)amino)-3-oxopropan-2-yl)-1-ethyl-1H-pyrazole-5-carboxamide], the IC50 in test [1] was found to be 1210 nM; in test [2] it was 194 nM; on IL-17AA and IL-17RA, 153 nM.
With `Cc1nonc1C(=O)N[C@H](C(=O)Nc1ccc([C@H](C)[C@@H](NC(=O)COC2CNC2)c2ncnn2CC2CC2)cc1F)C(C1CC1)C1CC1` [Compound 55, N-((S)-1-((4-((1R,2S)-1-(2-(azetidin-3-yloxy)acetamido)-1-(1-(cyclopropylmethyl)-1H-1,2,4-triazol-5-yl)propan-2-yl)-2-fluorophenyl)amino)-3,3-dicyclopropyl-1-oxopropan-2-yl)-4-methyl-1,2,5-oxadiazole-3-carboxamide], the IC50 in test [1] was determined as 210 nM; in test [2] it was 142 nM; at IL-17AA and IL-17RA it was 40 nM.
Take `CCC(=O)N[C@@H](c1ncnn1CC1CC1)[C@@H](C)c1ccc(NC(=O)[C@@H](NC(=O)c2ccnn2CC)C(C2CC2)C2CC2)c(F)c1` [Compound 72, N-((S)-1,1-dicyclopropyl-3-((4-((1R,2S)-1-(1-(cyclopropylmethyl)-1H-1,2,4-triazol-5-yl)-1-propionamidopropan-2-yl)-2-fluorophenyl)amino)-3-oxopropan-2-yl)-1-ethyl-1H-pyrazole-5-carboxamide]: the IC50 in test [1] turned out to be 8.5 nM; in test [2], 1.9 nM; at IL-17AA and IL-17RA, 1 nM.
As to `COCC(=O)N[C@@H](c1ncnn1CC1CC1)[C@@H](C)c1ccc(NC(=O)[C@@H](NC(=O)c2ccnn2C(C)C)C(C2CC2)C2CC2)c(F)c1` [Compound 33, N-((S)-1,1-dicyclopropyl-3-((4-((1R,2S)-1-(1-(cyclopropylmethyl)-1H-1,2,4-triazol-5-yl)-1-(2-methoxyacetamido)propan-2-yl)-2-fluorophenyl)amino)-3-oxopropan-2-yl)-1-isopropyl-1H-pyrazole-5-carboxamide], the IC50 in test [1] was determined as 7.7 nM; in test [2], 3.1 nM; at IL-17AA and IL-17RA, 7.9 nM.
In the case of `CCc1nonc1C(=O)N[C@H](C(=O)Nc1ccc([C@H](C)[C@@H](NC(=O)COC)c2nnnn2CC2CC2)cc1F)C(C1CC1)C1CC1` [Compound 29, N-((S)-1,1-dicyclopropyl-3-((4-((1R,2S)-1-(1-(cyclopropylmethyl)-1H-tetrazol-5-yl)-1-(2-methoxyacetamido)propan-2-yl)-2-fluorophenyl)amino)-3-oxopropan-2-yl)-4-ethyl-1,2,5-oxadiazole-3-carboxamide], the IC50 in test [1] came to 3.2 nM; in test [2] it was 2 nM; at IL-17AA and IL-17RA, 0.9 nM.
In the case of `[2H]C([2H])([2H])n1nccc1C(=O)N[C@@H](C(=O)Nc1ccc([C@H](C)[C@@H](NC(=O)CC)c2ncnn2CC2CC2)cc1F)C(C1CC1)C1CC1` [Compound 85, N-((R)-1,1-dicyclopropyl-3-((4-((1R,2S)-1-(1-(cyclopropylmethyl)-1H-1,2,4-triazol-5-yl)-1-propionamidopropan-2-yl)-2-fluorophenyl)amino)-3-oxopropan-2-yl)-1-(methyl-d3)-1H-pyrazole-5-carboxamide], the IC50 in test [1] was found to be 810 nM; in test [2] it was 539 nM; at IL-17AA and IL-17RA, 165 nM.
Consider `CCn1nccc1C(=O)N[C@H](C(=O)Nc1ccc([C@H](C)[C@@H](NC(=O)COC)c2nc(C)nn2CC2CC2)cc1F)C(C1CC1)C1CC1` [Compound 25, N-((S)-1,1-dicyclopropyl-3-((4-((1R,2S)-1-(1-(cyclopropylmethyl)-3-methyl-1H-1,2,4-triazol-5-yl)-1-(2-methoxyacetamido)propan-2-yl)-2-fluorophenyl)amino)-3-oxopropan-2-yl)-1-ethyl-1H-pyrazole-5-carboxamide], for which the IC50 in test [1] worked out at 313 nM; in test [2], 115 nM; at IL-17AA and IL-17RA, 57 nM.
As for `CCn1nccc1C(=O)N[C@H](C(=O)Nc1ccc([C@H](C)[C@@H](NC(=O)COC)c2ncnn2CC2CC2)cn1)C(C1CC1)C1CC1` [Compound 48, N-((S)-1,1-dicyclopropyl-3-((5-((1R,2S)-1-(1-(cyclopropylmethyl)-1H-1,2,4-triazol-5-yl)-1-(2-methoxyacetamido)propan-2-yl)pyridin-2-yl)amino)-3-oxopropan-2-yl)-1-ethyl-1H-pyrazole-5-carboxamide], the IC50 in test [1] came to 202 nM; in test [2], 13 nM; on IL-17AA and IL-17RA, 41 nM.
For `CCn1nccc1C(=O)N[C@H](C(=O)Nc1ccc([C@H](C)[C@@H](NC(=O)COC)c2nnnn2CC2CC2)cc1F)C(C1CC1)C1CC1` [Compound 24, N-((S)-1,1-dicyclopropyl-3-((4-((1R,2S)-1-(1-(cyclopropylmethyl)-1H-tetrazol-5-yl)-1-(2-methoxyacetamido)propan-2-yl)-2-fluorophenyl)amino)-3-oxopropan-2-yl)-1-ethyl-1H-pyrazole-5-carboxamide] the same measures were 10 nM, 2.5 nM and 3.2 nM.
For `CCOCC(=O)N[C@@H](c1ncnn1CC1CC1)[C@@H](C)c1ccc(NC(=O)[C@@H](NC(=O)c2nonc2C)C(C2CC2)C2CC2)c(F)c1` [Compound 63, N-((S)-1,1-dicyclopropyl-3-((4-((1R,2S)-1-(1-(cyclopropylmethyl)-1H-1,2,4-triazol-5-yl)-1-(2-ethoxyacetamido)propan-2-yl)-2-fluorophenyl)amino)-3-oxopropan-2-yl)-4-methyl-1,2,5-oxadiazole-3-carboxamide] the same measures were 8.3 nM, 4 nM and 2.5 nM.
For `CCC(=O)N[C@@H](c1nncn1CC1CC1)[C@@H](C)c1ccc(NC(=O)[C@@H](NC(=O)c2ccnn2CC)C(C2CC2)C2CC2)c(F)c1` [Compound 1, N-((S)-1,1-dicyclopropyl-3-((4-((1R,2S)-1-(4-(cyclopropylmethyl)-4H-1,2,4-triazol-3-yl)-1-propionamidopropan-2-yl)-2-fluorophenyl)amino)-3-oxopropan-2-yl)-1-ethyl-1H-pyrazole-5-carboxamide] the same measures were 49 nM, 13 nM and 27 nM.
